Source: patent publication US6624154B1, “Compositions and methods for treatment of hyperproliferative diseases” (Bristol-Myers Squibb Company, priority 1999, dated 2003)

Legend:
NB4-R2 cells = experiment: Cytokine expression in NB4-R2 cells by RNAse protection assay; assay type: cell-based, human
Method: (§1) Modulation of cytokine expression in NB4 cells was assessed by RNAse protection assays. […] For comparison the effect of vitamin D3 (“D3”) was studied also. […] The intact probes run on the same gel are shown on the left (L32 and GAPDH are the invariant internal controls used for calibration) and the positions of the protected fragments are indicated. […] Only the positions of the protected fragments are shown.
(§2) RPA analysis. Total RNA was extracted with the Trizol reagent (Gibco BRL). The ribonuclease protection assay was performed according to the supplier's instructions (Pharmingen, San Diego, Calif.). […] RNA (4 μg) and 6×10^5 cpm of labeled probes were used for hybridization. After RNAse treatments, the protected probes were resolved on a 5% urea-polyacrylamide-bis-acrylamide gel.

NB4 cells [1] = experiment: Cytokine expression in NB4 cells by RNAse protection assay; assay type: cell-based, human; details: for G-CSF expression: agent alone, 0, 24, 48 h
Method: as §1, §2

NB4 cells [2] = experiment: NB4 cell maturation (morphology, NBT reduction, CD11c integrin expression); assay type: cell-based, human; details: for Induction of NB4 cell maturation/differentiation, agent alone: ATRA 1 μM, other agonists 0.2 μM, 8CPT-cAMP 100 μM, 72 h (NBT, morphology), 48 h (CD11c); for NB4 cell maturation in presence of 8CPT-cAMP: co-treatment with PKA agonist 8CPT-cAMP 100 μM
Method: Morphological features of NB4 cells in response to treatments (after 72 h). […] Nitroblue tetrazolium enzymatic reduction in retinoid-treated NB4 cells (after 72 h; percent of positive cells).
Cells and cultures. […] Essentially, cultures were established with log phase growing cells at concentration (10^5 ocell per ml) allowing exponential growth of untreated control cultures over 3 days without medium replenishment. […] Cultures were light-protected.
Morphological and functional cell maturation analysis. Cell morphology was analyzed after May-Grünwald staining. […] Morphology analysis and NBT reaction were performed after 72 h of treatment. At least 300 cells were analyzed for each treated culture.
Flow cytometry analysis of CD11c cell surface integrin. […] Briefly, after incubation (48 h), cells were washed in PBS and labeled with an anti-human CD11c FITC mouse monoclonal antibody (Becton-Dickinson). Cells were then washed twice in PBS and fixed in 1% paraformaldehyde/PBS solution. Cells were analyzed using a COULTER flow-cytometer.

T47D = experiment: Lipid accumulation (Nile Red staining) in T47D breast cancer cells; assay type: cell-based, human; details: 7 days; for Increase of differentiation by addition of CPT-cAMP over RXR ligand alone: 1 μM RXR ligand plus 100 μM 8CPT-cAMP; for EC50: RXR compound alone, Nile Red
Method: Staining Solution: Stock Solution (1 mg Nile red and 1 ml acetone were mixed thoroughly and stored, chilled and protected from light).
Staining. For Fluorescence Microscope, a drop of dye-glycerol solution was added to a slide and covered with a glass coverslip. After 5 minutes, the slide was viewed by fluorescence microscope, Excitation 450-500 nm, Emission>528 nm. For Flow Cytofluorometry, the medium was aspirated off from cells and washed with PBS two times (serum in the medium drained the dye out of the cells). Then the cells were trypsinized and washed with PBS to get rid of trypsin. The cells were spun down and resuspended in 1 ml PBS (1-2×10^6/ml). The stock dye was added directly to the cells suspension in PBS with 1:100 dilution, and incubated at room temperature for a minimal of 5 minutes, and the samples were analyzed immediately. For Fluorescence Spectra, the medium was removed from 96-well plates and the cells were washed once with PBS. […] Diluted dye in PBS (1:100 from stock) was added to the cells, incubated for 5 minutes, and the plate was read at Excitation 488nm with a 2-nm slit width, emission at 540 nm with a 20-nm slit width.
Cells. Breast cancer cell line T47D was obtained from American Type Culture Collection, Manassas, Va.

RARα-RXRα heterodimer = target: T1, RARα-RXRα heterodimer (Homo sapiens, UniProt P10276+P19793); experiment: Transient transfection, RARα-RXRα heterodimer activity on DR5-tk-CAT reporter
T1 sequence (P10276 1-462): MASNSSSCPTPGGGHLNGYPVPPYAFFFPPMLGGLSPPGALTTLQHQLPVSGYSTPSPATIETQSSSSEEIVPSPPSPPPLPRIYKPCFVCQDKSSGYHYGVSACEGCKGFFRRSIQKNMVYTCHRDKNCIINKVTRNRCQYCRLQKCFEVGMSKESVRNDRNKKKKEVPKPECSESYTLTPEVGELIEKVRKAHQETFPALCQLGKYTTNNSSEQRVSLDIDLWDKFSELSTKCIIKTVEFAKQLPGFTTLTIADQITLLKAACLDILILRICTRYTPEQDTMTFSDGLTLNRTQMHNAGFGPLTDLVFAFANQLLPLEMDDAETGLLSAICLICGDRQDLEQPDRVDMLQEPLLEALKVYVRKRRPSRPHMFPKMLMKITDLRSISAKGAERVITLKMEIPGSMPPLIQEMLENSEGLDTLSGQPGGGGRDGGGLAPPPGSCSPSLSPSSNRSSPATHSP
T1 sequence (P19793 1-462): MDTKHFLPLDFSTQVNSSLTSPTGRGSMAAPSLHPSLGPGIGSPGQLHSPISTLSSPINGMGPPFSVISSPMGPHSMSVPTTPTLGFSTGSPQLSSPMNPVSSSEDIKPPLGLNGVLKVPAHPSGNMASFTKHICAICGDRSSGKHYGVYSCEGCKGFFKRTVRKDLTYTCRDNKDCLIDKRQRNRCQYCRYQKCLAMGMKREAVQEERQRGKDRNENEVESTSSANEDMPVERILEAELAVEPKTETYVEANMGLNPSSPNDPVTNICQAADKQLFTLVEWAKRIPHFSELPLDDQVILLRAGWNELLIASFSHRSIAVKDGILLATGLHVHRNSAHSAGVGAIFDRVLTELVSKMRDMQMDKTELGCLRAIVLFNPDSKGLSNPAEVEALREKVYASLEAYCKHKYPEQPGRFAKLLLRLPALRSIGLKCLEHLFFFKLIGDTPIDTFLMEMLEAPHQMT

Structure (SMILES): CC1=C(/C=C/C(C)=C/C=C/C(C)=C/C(=O)O)C(C)(C)CCC1 [ATRA, all-trans retinoic acid]
- IP 10, MCP1 or M-CSF expression in resistant cells (NB4-R2 cells): unable to induce
- IL8 and MCPI expression (NB4 cells [1]; agent alone): induced
- M-CSF and IP10 expression (NB4 cells [1]; agent alone): induced
- G-CSF expression (NB4 cells [1]): incapable of stimulating G-CSF expression
- Induction of NB4 cell maturation/differentiation, agent alone (NB4 cells [2]): induce maturation

Structure (SMILES): Nc1ncnc2c1nc(Sc1ccc(Cl)cc1)n2[C@@H]1O[C@@H]2COP(=O)([O-])O[C@H]2[C@H]1O.[Na+] [Compound 8CPT-cAMP, 8-(4-Chlorophenylthio)-adenosine-3′,5′-cyclic monophosphate, sodium salt]
- Lipid accumulation/differentiation, CPT-cAMP alone (T47D; 100 μM): No effect
- Induction of NB4 cell maturation/differentiation, agent alone (NB4 cells [2]): did not exhibit any differentiating activity

Structure (SMILES): CC1(C)C(=O)C(C)(C)c2cc(C(=O)Nc3ccc(C(=O)O)cc3)ccc21 [Compound I, 4-[[(2,3-Dihydro-1,1,3,3-tetramethyl-2-oxo-1H-inden-5-yl)carbonyl]amino]benzoic acid]
- Induction of NB4 cell maturation/differentiation, agent alone (NB4 cells [2]): induce maturation
- Growth of NB4 cells (NB4 cells [2]; agent alone): growth inhibited

Structure (SMILES): CC1(C)CC=C(c2cnc3ccccc3c2)c2cc(C(=O)Nc3ccc(C(=O)O)cc3)ccc21 [Compound II]
- Effect on Compound I-induced differentiation (NB4 cells [2]; NB4 cells, antagonist 2 μM): abrogated
- Effect on maturation induced by 9-cis RA (NB4 cells [2]; NB4 cells, antagonist 2 μM): decreased dramatically
- Inhibition of NB4 maturation induced by SR11237 plus 8CPT-cAMP (NB4 cells [2]; antagonist 2 μM): not inhibited

Structure (SMILES): C=C(c1ccc(C(=O)O)cc1)c1cc2c(cc1C)C(C)(C)CC=C2C(C)C [Compound V, 4-[1-[5,6-Dihydro-3,5,5-trimethyl-8-(1-methylethyl)-2-naphthalenyl]ethenyl]benzoic acid]
- Activity with RAR-RXR heterodimers on a DR5-based reporter (RARα-RXRα heterodimer; agent alone): nearly inactive
- Effect on ATRA-induced transactivation of DR5-based reporter (RARα-RXRα heterodimer; with ATRA): synergized with
- Induction of NB4 cell maturation/differentiation, agent alone (NB4 cells [2]): did not exert any differentiative effect
- NB4 cell maturation in presence of 8CPT-cAMP (NB4 cells [2]): induced maturation with a potency similar to 9-cis RA

Structure (SMILES): CC1(C)CC=C(c2ccc(-c3ccccc3)cc2)c2cc(/C=C/c3ccc(C(=O)O)cc3)ccc21 [Compound VI]
- Effect on Compound I-induced differentiation (NB4 cells [2]; NB4 cells, antagonist 2 μM): abrogated
- Inhibition of NB4 maturation induced by SR11237 plus 8CPT-cAMP (NB4 cells [2]; antagonist 2 μM): not inhibited

Structure (SMILES): CN1c2ccc([N+](=O)[O-])cc2N=C(c2ccc(C(=O)O)cc2)c2cc3c(cc21)C(C)(C)CCC3(C)C [HX531]
- NB4 cell maturation in presence of 8CPT-cAMP (NB4 cells [2]): No crosstalk

Structure (SMILES): CC1(C)CCC(C)(C)c2cc(C3(c4ccc(C(=O)O)cc4)OCCO3)ccc21 [SR11237]
- Factor of synergy, G-CSF expression (NB4 cells [1]; SR11237 with 8CPT-cAMP): > 50 fold
- G-CSF expression (NB4 cells [1]): does not affect G-CSF expression
- SCF, IL8 and MCPI expression (NB4 cells [1]; agent on its own): induced
- Transactivation of DR5-based reporter by coexpressed RAR and RXR in presence of the PKA agonist (RARα-RXRα heterodimer; with 8CPT-cAMP): did not observe any SR11237-induced transactivation
- Increase of differentiation by addition of CPT-cAMP over RXR ligand alone (T47D): 20%
- EC50 (T47D): 110 nM
- Induction of NB4 cell maturation/differentiation, agent alone (NB4 cells [2]): completely inactive
- NB4 cell maturation in presence of 8CPT-cAMP (NB4 cells [2]): induced full maturation

Structure (SMILES): C=C(c1ccc(C(=O)O)cc1)c1cc2c(cc1C)C(C)(C)CCC2(C)C [bexarotene]
- Increase of differentiation by addition of CPT-cAMP over RXR ligand alone (T47D): 20%
- EC50 (T47D; Homo sapiens, T47D, 168 h): 62 nM

Structure (SMILES): C=C1CC[C@H](O)C/C1=C/C=C1\CCC[C@]2(C)[C@@H]([C@H](C)CCCC(C)C)CC[C@@H]12 [vitamin D3]
- Induction of NB4 cell maturation/differentiation, agent alone (NB4 cells [2]): inactive on its own
- NB4 cell maturation in presence of 8CPT-cAMP (NB4 cells [2]): moderate granulocytic maturation
- Granulocytic maturation relative to the effect of SR11237 in presence of the PKA agonist (NB4 cells [2]; uM concentration, with 8CPT-cAMP): less than 20%
